Source: paper PMC12692861, “Biotin-Linked Ursolic Acid Conjugates as Selective Anticancer Agents and Target-Identification Tools for Cancer Therapy” (Molecules, 2025)
Where two headings read alike, the source gives them in different places.

Tests used:
MB49 cells = assay: Annexin V-FITC/PI apoptosis flow cytometry; format: cell-based, murine; conditions: Mus musculus, MB49, 24 h, read-out: Q4-3 (Q3, viable) cells
Protocol: (§1) The potential of cells treated with UA or 5c to undergo dose-dependent apoptosis was explored using quantitative flow cytometric analysis, as shown in Figure 4. Utilizing a kit that detects quantitative binding of Annexin V to externalized phosphatidyl serine during the apoptosis cascade and permeability of Propidium iodide (PI) in cells undergoing cell death, we determined the cells at various stages of cell death following 24h incubation with UA and 5c in various bladder cancer cells.
(§2) We used a fluorescence-based Annexin V binding assay to determine the fraction of the cell population undergoing early and late apoptosis due to the cytotoxicity of the drugs. Cells plated in a 60 mm dish overnight at 0.3 × 10^6 cells/well were incubated with the selected drug at several doses for 24 h. Subsequently, treated cells were labeled with FITC-Annexin V using a kit (eBioscience™ Annexin V Apoptosis Detection Kits; Invitrogen # 88-8005-72, Thermo Fisher Scientific, Seoul, Korea) as per the manufacturer’s instructions. Intact cell suspension labeled with FITC-Annexin V and PI was run on the NovoCyte Quanteon flow cytometer, and data were acquired in list mode. Acquired data were analyzed using NovoExpress software (version 1.6.1). Cells treated with Staurosporine (0.2 µM) act as a positive control.

5637 cells [1] = assay: Annexin V-FITC/PI apoptosis flow cytometry; format: cell-based; conditions: Homo sapiens, 24 h, read-out: Q3-3 (Q3, viable) cells
Protocol: as §1, §2

5637 cells [2] = assay: MTT antiproliferative assay; format: cell-based, human; conditions: for IC50: 72 h, MTT, read-out: IC50 (Mean ± SD), 5637
Protocol: (§3) The synthesized hybrid conjugates 5a–d were evaluated for their antiproliferative activity against the established human bladder cancer cell lines T24 and 5637. Test compounds were dissolved in ultrapure dimethyl sulfoxide (DMSO), diluted in cell culture media, added to cells cultured in 96-well cluster wells, and incubated for 72 h. The concentration of DMSO in culture media was maintained at < 0.05%. As previously reported, the fraction of viable cells in the culture wells was compared to that in cultures with 0.05% DMSO-only using a colorimetric assay, the Methyl Tetrazolium Bromide (MTT) reduction assay. We determined the selectivity index (SI) of the compounds 5a–d against tumor cells by comparing their cytotoxicity to that of a non-tumorigenic breast epithelial cell line, MCF-12A, as well as a non-tumorigenic, immortalized urothelial cell line, UROtsa (Table 1, and Figure 2).
(§4) The antiproliferative activities of various compounds examined in this report were measured using the MTT (3-[4,5-dimethylthiazol-2-yl]-2,5-diphenyl-tetrazolium bromide) reduction assay, as previously described. Briefly, cells were seeded at 2 × 10^3 cells per well in a 96-well plate and cultured overnight. The cells were then treated with different doses (5 µM, 10 µM, 15 µM, 20 µM, 25 µM, 30 µM, 35 µM, 40 µM in DMSO) for 72 h. Viability of the treated cultures was estimated by conversion of MTT to the insoluble formazan after 3h incubation at 37 °C and 5% CO2. The purple-colored formazan crystals were dissolved in DMSO, and absorbance was recorded at wavelengths 570/640 nm using the Bio-Rad Benchmark Plus Microplate Reader. The percent of viable cells was calculated ODtreated cells/ODcontrol cell wells × 100.

T24 cells = assay: MTT antiproliferative assay; format: cell-based, human; conditions: for IC50: Homo sapiens, T-24, MTT, 72 h, read-out: IC50 (Mean ± SD), T24; for SI (selectivity index), T24: IC50 MCF-12A / IC50 T24
Protocol: as §3, §4

MCF-12A = assay: MTT assay, non-tumorigenic breast epithelial cell line; format: cell-based, human; conditions: Homo sapiens, MCF-12A; MTT, 72 h, non-tumorigenic cells; read-out: IC50 (Mean ± SD), MCF-12A
Protocol: as §3, §4

[3] = tested on: human bladder cancer cell lines T24 and 5637; assay: MTT antiproliferative activity, result in words; format: cell-based; conditions: 72 h
Protocol: as §3
The antiproliferative activities of various compounds examined in this report were measured using the MTT (3-[4,5-dimethylthiazol-2-yl]-2,5-diphenyl-tetrazolium bromide) reduction assay, as previously described. […] The purple-colored formazan crystals were dissolved in DMSO, and absorbance was recorded at wavelengths 570/640 nm using the Bio-Rad Benchmark Plus Microplate Reader. The percent of viable cells was calculated ODtreated cells/ODcontrol cell wells × 100.

## CN[C@@H]1C[C@H]2O[C@@](C)([C@@H]1OC)n1c3ccccc3c3c4c(c5c6ccccc6n2c5c31)C(=O)NC4 [Stauro., Staurosporine]
MB49 cells
  viability at 0.2 µM: 12.3%
5637 cells [1]
  viability at 0.2 µM: 25.3%

## CC1CCC2(C(=O)OCCOC(=O)CCCCC3SCC4NC(=O)NC43)CCC3(C)C(=CCC4C5(C)CCC(O)C(C)(C)C5CCC43C)C2C1C [Compound 5a, 2-((5-((3aS,4S,6aR)-2-Oxohexahydro-1H-thieno [3,4-d]imidazol-4-yl)pentanoyl)oxy) ethyl 3-hydroxy-urs-12-en-28-oate]
5637 cells [2]; Homo sapiens
  IC50: 39.3 ± 21.2 µM
5637 cells [2]; IC50 MCF-12A / IC50 5637
  SI (selectivity index), 5637: 15.92
T24 cells
  IC50: 14.6 ± 4.97 µM
  SI (selectivity index), T24: 42.96
MCF-12A
  IC50: 626 ± 34.7 µM

## CC1CCC2(C(=O)OCCCOC(=O)CCCCC3SCC4NC(=O)NC43)CCC3(C)C(=CCC4C5(C)CCC(O)C(C)(C)C5CCC43C)C2C1C [Compound 5b, 3-((5-((3aS,4S,6aR)-2-Oxohexahydro-1H-thieno [3,4-d]imidazol-4-yl)pentanoyl)oxy) propyl 3-hydroxy-urs-12-en-28-oate]
5637 cells [2]; Homo sapiens
  IC50: ≥ 10000 µM
5637 cells [2]
  IC50: > 10000 µM
T24 cells
  IC50: 108 ± 24.4 µM
  SI (selectivity index), T24: 0.68
MCF-12A
  IC50: 73.33 ± 0.12 µM
[3]
  antiproliferative activity: ineffective

## CC1CCC2(C(=O)OCCCCCCOC(=O)CCCCC3SCC4NC(=O)NC43)CCC3(C)C(=CCC4C5(C)CCC(O)C(C)(C)C5CCC43C)C2C1C [Compound 5d, 6-((5-((3aS,4S,6aR)-2-Oxohexahydro-1H-thieno [3,4-d]imidazol-4-yl)pentanoyl)oxy) hexyl 3-hydroxy-urs-12-en-28-oate]
5637 cells [2]; Homo sapiens
  IC50: > 10000 µM
T24 cells
  IC50: 582 µM
  SI (selectivity index), T24: 6.57
MCF-12A
  IC50: 3820 µM
[3]
  antiproliferative activity: largely inactive
